This note sets out measurements from patent US8912180B2, “Heterocyclic compound” (Astellas Pharma Inc., priority 2010, dated 2014).

Where a name gives a salt, the structure may show the parent alone.

In assay [1] the test system is Spleen cells prepared from male LEW/CrlCrlj rats (B cell proliferation). Briefly: Rat B cell proliferation inhibition test (anti-rat IgM, [3H]thymidine). The following applies: anti-rat IgM 3 μg/well, 48 hours culture. It counts as cell-based. How it is done: 4. Rat B Cell Proliferation Inhibition Test
Spleen cells (1.0×10^5 cells/well) prepared from male LEW/CrlCrlj rats (Charles River Laboratories, Japan, Inc.), mouse F(ab′)2 fragment anti-rat IgM (3 μg/well, SouthernBiotech Associates, Inc., Catalogue No. 3082-14) and the test compound dissolved in DMSO (final DMSO concentration 0.1%) were mixed in a 96-well plate using a 10% FCS-containing RPMI-1640 culture medium (total 200 μL). They were cultured in a CO2 incubator for 48 hours and [^3H]thymidine (925 GBq/mmol, Moravek Biochemicals, Inc., Catalogue No. MT6038) was added thereto at 0.037 MBq/well at 4 hours before completion of culture. Cells were harvested in a GF/C glass filter using a cell harvester, and a radioactivity on the filter was measured using a liquid scintillation counter.

For another assay, the system named is IL-2 production. Briefly: Rat in vivo IL-2 production inhibition test (Concanavalin A induced). Particulars: 10 mg/kg oral, 2 hours before Concanavalin A 15 mg/kg iv; blood IL-2 at 3 hours, vs vehicle control; male LEW rats. How it is done: 3. Rat In Vivo IL-2 Production Inhibition Test
For the experiment, male LEW/CrlCrlj rats (Charles River Laboratories, Japan, Inc.) (6-week old, body weight 130 to 180 g) were used. The test compound was suspended in a 0.5% methyl cellulose solution and orally administered at 5 mL/kg. IL-2 production was induced by tail vein injection of Concanavalin A (Funakoshi Corporation, Catalogue No. L-1000) at a dose of 15 mg/kg.
The test was carried out according to the protocol shown below. At 2 hours or 16 hours before administration of Concanavalin A, the test compound was orally administered to rats. At 3 hours after administration of Concanavalin A, blood was collected. The IL-2 concentration in blood was quantified using an ELISA kit (R&D Systems, Inc., Catalogue No. DY502E). An inhibition rate was calculated from the amount of IL-2 produced in a group administered with the test compound with respect to the amount of the IL-2 produced in a control group administered with a vehicle.

The target in another assay is T1, Human PI3Kα (Homo sapiens, UniProt P42336).
T1 construct: purchased Millipore Corporation 14-602
T1 sequence (P42336 whole entry): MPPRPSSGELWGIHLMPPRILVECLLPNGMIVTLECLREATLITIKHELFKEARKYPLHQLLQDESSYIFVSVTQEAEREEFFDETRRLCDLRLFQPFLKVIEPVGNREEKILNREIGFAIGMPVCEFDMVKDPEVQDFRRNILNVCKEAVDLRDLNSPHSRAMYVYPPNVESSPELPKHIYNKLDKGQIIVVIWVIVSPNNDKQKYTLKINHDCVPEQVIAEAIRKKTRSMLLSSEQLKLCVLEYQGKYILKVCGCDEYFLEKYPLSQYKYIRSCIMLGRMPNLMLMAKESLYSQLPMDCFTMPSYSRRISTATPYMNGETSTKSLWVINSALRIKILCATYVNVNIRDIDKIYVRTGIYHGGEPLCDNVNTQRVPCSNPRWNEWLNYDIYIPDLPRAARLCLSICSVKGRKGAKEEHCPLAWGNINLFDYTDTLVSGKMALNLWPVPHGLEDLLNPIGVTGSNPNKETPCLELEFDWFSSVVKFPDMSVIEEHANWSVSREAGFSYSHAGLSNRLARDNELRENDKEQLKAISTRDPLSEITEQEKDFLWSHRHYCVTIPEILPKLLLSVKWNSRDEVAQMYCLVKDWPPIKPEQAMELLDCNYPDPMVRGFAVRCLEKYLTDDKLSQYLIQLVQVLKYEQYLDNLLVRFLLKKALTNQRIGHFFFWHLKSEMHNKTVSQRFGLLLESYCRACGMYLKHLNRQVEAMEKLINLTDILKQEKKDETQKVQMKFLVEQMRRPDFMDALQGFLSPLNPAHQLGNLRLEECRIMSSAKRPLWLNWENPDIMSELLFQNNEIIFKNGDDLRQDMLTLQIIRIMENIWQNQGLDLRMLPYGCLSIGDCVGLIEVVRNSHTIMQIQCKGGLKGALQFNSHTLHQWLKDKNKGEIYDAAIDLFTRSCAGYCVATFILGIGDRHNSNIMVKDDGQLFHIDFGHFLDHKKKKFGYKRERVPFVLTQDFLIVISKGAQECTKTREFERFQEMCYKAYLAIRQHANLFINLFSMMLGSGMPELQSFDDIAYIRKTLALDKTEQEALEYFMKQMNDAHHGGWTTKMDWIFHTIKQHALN
T1 sequence (P27986 whole entry partner): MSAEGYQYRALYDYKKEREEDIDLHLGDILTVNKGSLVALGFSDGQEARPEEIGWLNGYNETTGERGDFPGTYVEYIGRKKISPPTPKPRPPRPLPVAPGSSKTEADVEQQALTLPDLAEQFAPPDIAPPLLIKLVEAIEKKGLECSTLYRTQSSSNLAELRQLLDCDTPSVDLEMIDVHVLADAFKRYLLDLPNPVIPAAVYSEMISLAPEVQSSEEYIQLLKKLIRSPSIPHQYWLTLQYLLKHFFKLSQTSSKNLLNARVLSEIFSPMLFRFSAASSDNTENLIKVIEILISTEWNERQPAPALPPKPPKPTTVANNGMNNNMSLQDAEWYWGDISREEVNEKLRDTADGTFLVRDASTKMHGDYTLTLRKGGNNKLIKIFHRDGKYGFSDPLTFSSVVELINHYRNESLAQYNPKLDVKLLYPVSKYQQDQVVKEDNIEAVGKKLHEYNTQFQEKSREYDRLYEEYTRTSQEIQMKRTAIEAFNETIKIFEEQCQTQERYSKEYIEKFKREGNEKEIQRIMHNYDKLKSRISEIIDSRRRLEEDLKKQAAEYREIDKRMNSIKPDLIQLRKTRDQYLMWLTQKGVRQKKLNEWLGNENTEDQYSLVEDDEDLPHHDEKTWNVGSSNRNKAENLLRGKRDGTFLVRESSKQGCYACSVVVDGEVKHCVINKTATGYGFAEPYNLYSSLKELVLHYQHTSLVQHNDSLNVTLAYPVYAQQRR
Briefly: PI3Kα enzyme inhibitory activity (Kinase-Glo Plus luminescence). It counts as biochemical. Particulars: human PI3Kα 12 ng/well, phosphatidylinositol 0.2 μg/well, 37° C. 3 hours. The method, then:
2. PI3Kα Enzyme Inhibitory Activity
Human PI3Kα (12 ng/well, Millipore Corporation, Catalogue No. 14-602), phosphatidylinositol (0.2 μg/well), and the test compound were mixed in a 384-well plate in a reaction buffer (50 mM Hepes, 10 mM NaCl, 10 mM MgCl2, 2 mM EGTA, 2 mM DTT, pH 7.3) (total 10 μl), and incubated at 37° C. for 3 hours. After the reaction, 10 μL of a Kinase-Glo Plus reagent (Promega, Catalogue No. V3772) was added thereto, and a luminescence was measured with a luminometer.

The next assay has as its target T2, human PI3Kδ enzyme (Homo sapiens, UniProt O00329).
T2 construct: purchased Millipore Corporation 14-604
Briefly: PI3Kδ enzyme inhibitory activity (PI3-Kinase HTRF Assay kit). It counts as biochemical. The following applies: human PI3Kδ 10 ng/well, ATP 30 μM, PIP2 10 μM, room temperature 30 minutes. The method, then: 1. PI3Kδ Enzyme Inhibitory Activity
For the experiment, a PI3-Kinase HTRF Assay kit (Millipore Corporation, Catalogue No. 33-016) and a human PI3Kδ enzyme (Millipore Corporation, Catalogue No. 14-604) were used. The measurement method was in accordance with the appended instructions. The overview thereof is as follows.
PI3Kδ (10 ng/well), phosphatidylinositol-4,5-bisphosphate (10 μM), ATP (30 μM), and the test compound were mixed in a 384-well plate (total 20 μL), and incubated at room temperature for 30 minutes. EDTA and biotinylated phosphatidylinositol-3,4,5-triphosphate were added thereto to stop the reaction. Thereafter, a Europium labeled anti-GST antibody, a GST bond GRP1 PH domain, and streptavidin-APC were added thereto, followed by incubation overnight. An HTRF ratio was measured using an HTRF plate reader.

T2 sequence (O00329 whole entry): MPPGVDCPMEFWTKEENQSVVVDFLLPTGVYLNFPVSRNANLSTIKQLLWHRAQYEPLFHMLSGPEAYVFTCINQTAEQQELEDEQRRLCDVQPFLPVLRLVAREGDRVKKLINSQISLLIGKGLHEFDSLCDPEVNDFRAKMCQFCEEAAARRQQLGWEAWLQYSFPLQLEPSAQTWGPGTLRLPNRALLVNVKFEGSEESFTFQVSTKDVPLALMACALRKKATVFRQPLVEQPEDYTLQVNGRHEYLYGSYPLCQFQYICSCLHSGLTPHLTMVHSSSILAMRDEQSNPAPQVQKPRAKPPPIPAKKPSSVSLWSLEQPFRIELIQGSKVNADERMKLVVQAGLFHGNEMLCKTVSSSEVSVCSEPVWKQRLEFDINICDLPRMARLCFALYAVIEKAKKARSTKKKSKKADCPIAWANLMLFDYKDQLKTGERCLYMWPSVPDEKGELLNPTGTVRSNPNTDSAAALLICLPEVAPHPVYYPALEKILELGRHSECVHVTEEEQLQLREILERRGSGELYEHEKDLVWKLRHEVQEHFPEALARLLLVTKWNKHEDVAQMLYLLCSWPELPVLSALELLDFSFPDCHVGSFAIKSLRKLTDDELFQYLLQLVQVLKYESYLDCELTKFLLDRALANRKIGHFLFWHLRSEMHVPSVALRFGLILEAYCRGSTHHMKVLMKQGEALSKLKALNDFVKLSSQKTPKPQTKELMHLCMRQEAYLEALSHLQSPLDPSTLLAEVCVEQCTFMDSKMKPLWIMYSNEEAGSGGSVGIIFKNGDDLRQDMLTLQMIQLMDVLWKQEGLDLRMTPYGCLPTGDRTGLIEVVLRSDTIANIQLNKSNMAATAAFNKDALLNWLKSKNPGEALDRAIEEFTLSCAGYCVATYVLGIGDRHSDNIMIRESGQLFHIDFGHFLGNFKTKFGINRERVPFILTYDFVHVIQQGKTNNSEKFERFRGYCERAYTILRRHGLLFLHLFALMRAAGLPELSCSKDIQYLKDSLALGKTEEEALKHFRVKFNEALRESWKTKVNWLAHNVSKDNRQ
T2 sequence (P27986 whole entry partner): as the sequence (P27986 whole entry partner) above

Consider `FC(F)c1nc2ccccc2n1-c1cc(N2CCOCC2)nc(NCC2CCN(C3CCOCC3)CC2)n1` [Example 10], for which the figures for the IC50 (in assay [1]; on Human PI3Kα; against human PI3Kδ enzyme) were 2.9 nM, > 3000 nM and 5.8 nM, respectively. Besides, the “inhibitory activity (IL-2 production inhibition rate)” value (shortened to “inhibitory activity”) in the assay on IL-2 production was determined as 77%.

As for `OCC1CCC(N2CCC(CNc3nc(N4CCOCC4)cc(-n4c(C(F)F)nc5ccccc54)n3)CC2)CC1` (stereo not drawn) [Example 29], the “inhibitory activity” value with IL-2 production is 51%. Moreover, the concentration for half-maximal inhibition (IC50) on Human PI3Kα was > 3000 nM; against human PI3Kδ enzyme, 45 nM.

For the compound `CC(=O)N1CCC(N2CCC(CNc3nc(N4CCOCC4)cc(-n4c(C(F)F)nc5ccccc54)n3)CC2)CC1` [Example 33], the “inhibitory activity” value in the assay on IL-2 production is 75%. Moreover, the half-inhibitory concentration (IC50) was > 3000 nM at Human PI3Kα and 11 nM against human PI3Kδ enzyme.

Regarding `CS(=O)(=O)N1CCC(N2CCC(CNc3nc(N4CCOCC4)cc(-n4c(C(F)F)nc5ccccc54)n3)CC2)CC1` [Example 34], the “inhibitory activity” value with IL-2 production stood at 72%. For the same compound, the results for the concentration for half-maximal inhibition (IC50) on Human PI3Kα and on human PI3Kδ enzyme were > 3000 nM and 14 nM, respectively.

For the compound `C[C@@H]1COCCN1c1cc(-n2c(C(F)F)nc3ccccc32)nc(NCC2CCN(C3CCOCC3)CC2)n1` [Example 37], the values for the IC50 (in assay [1]; at Human PI3Kα; at human PI3Kδ enzyme) were 1.52 nM, 1900 nM and 20 nM, respectively. In addition, the “inhibitory activity” value with IL-2 production is 81%.

Take `FC(F)c1nc2ccccc2n1-c1cc(N2CCOCC2)nc(NCC2CCN([C@H]3CC[C@H](F)CC3)CC2)n1` [Example 43-1, 4-[2-(difluoromethyl)-1H-benzimidazol-1-yl]-N-{[1-(trans-4-fluorocyclohexyl)piperidin-4-yl]methyl}-6-(morpholin-4-yl)pyrimidin-2-amine dihydrochloride]: the results for the IC50 (in assay [1]; at Human PI3Kα; against human PI3Kδ enzyme) were 2.1 nM, 13000 nM and 8 nM, respectively. Further, the “inhibitory activity” value in the assay on IL-2 production amounted to 73%.

For `CN1CCC(CNc2nc(N3CCOCC3)nc(-n3c(C(F)F)nc4ccccc43)n2)CC1` [Example A4], the “inhibitory activity” value with IL-2 production came out at 58%. Also, the figures for the concentration for half-maximal inhibition (IC50) at Human PI3Kα and on human PI3Kδ enzyme were 730 nM and 31 nM, respectively.
